According to patent publication US20240400553A1, “AMINE BASED MATRIPTASE 2 INHIBITORS AND USES THEREOF” (Disc Medicine, Inc., priority 2023, published 2024):
Like-named read-outs stand apart in the source and are kept apart here.

Target: T1, Human Recombinant Matriptase 2 (Homo sapiens, UniProt Q8IU80)
T1 construct: made in house
T1 sequence (Q8IU80 1-811): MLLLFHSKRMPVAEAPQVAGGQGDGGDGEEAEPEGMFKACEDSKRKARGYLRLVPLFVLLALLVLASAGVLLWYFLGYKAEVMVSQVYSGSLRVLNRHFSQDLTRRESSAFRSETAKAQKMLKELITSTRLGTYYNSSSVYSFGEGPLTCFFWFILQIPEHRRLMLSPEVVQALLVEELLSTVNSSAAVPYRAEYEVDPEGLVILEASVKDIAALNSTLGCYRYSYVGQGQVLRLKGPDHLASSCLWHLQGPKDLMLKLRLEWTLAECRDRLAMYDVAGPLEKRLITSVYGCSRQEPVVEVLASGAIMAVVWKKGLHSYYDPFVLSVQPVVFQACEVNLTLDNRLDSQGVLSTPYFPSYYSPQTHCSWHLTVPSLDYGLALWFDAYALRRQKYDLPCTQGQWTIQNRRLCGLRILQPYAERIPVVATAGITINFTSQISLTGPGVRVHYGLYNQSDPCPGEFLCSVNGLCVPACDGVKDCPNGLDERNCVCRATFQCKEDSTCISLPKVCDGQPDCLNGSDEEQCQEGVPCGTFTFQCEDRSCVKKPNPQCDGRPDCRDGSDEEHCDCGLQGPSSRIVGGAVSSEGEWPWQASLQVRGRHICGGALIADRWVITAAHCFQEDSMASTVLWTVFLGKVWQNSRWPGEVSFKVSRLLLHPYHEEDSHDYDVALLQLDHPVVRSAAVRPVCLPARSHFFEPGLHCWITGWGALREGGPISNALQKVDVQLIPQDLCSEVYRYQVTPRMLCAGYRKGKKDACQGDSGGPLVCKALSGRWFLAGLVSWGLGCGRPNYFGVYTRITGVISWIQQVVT
Experiment: Matriptase 2 inhibition, fluorescence based assay (Method I)
Assay type: biochemical
Outline: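 Fluorogenic readout (Ex 360/Em 480 nm) taken 60 min after adding 62 μM Boc-Gln-Ala-Arg-AMC, following 30-min enzyme–compound preincubation at 25 °C. Conditions: 3.5 nM in-house enzyme, pH 7.5 Tris/NaCl/gelatin buffer, 1% DMSO; percent inhibition versus concentration fitted by variable-slope sigmoidal regression.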

[1] = Table A, Ki of Matriptase-2, read-out: Mat-2 Ki

Ki [1] | Ki (Table B, Human Recombinant Matriptase 2, 3.5 nM enzyme, 62 μM substrate, 30 mins preincubation, read-out: Mean Ki) | SMILES
≤ 100 nM |  | CNCCNC(=O)c1cc2ccc(CN)nc2n1Cc1cc(NS(=O)(=O)Cc2ccccc2)cc2ccccc12 [Compound 76, 6-(aminomethyl)-N-[2-(methylamino)ethyl]-1-{[3-(phenylmethane-sulfonamido)naphthalen-1-yl]methyl}-1H-pyr-rolo[2,3-b]pyridine-2-carboxamide]
≤ 100 nM |  | NCc1ccc2cc(C(=O)OCC3CCOCC3)n(Cc3cc(NS(=O)(=O)Cc4ccccc4)cc4ccccc34)c2n1 [Compound 79, (oxan-4-yl)methyl 6-(aminomethyl)-1-{[3-(phenylmethanesulfon-amido)naphthalen-1-yl]-methyl}-1H-pyrrolo[2,3-b]pyridine-2-carboxylate]
 | ≤ 100 nM | CN1CCC(CCOC(=O)c2cc3ccc(CN)nc3n2Cc2cc(NS(=O)(=O)Cc3ccccc3)cc3c2CCCC3)CC1 [Compound 2.15]
